Reference: US9266871B2, “Trifluoromethyl-substituted fused pyrimidines and their use” (BAYER PHARMA AKTIENGESELLSCHAFT, priority 2013, dated 2016)

Assay: Pharmacokinetic parameters following intravenous and oral administration
Format: in vivo, rat
Conditions: rats, i.v. 0.3 mg/kg and oral 1 mg/kg
Description: • Klaus Witte, Kai Hu, Johanna Swiatek, Claudia Müssig, Georg Ertl and Björn Lemmer: Experimental heart failure in rats: effects on cardiovascular circadian rhythms and on myocardial β-adrenergic signaling. Cardiovasc Res 47 (2): […], 2000; Kozo Okamoto: Spontaneous hypertension in rats. Int Rev Exp Pathol 7: 227-270, 1969; Maarten van den Buuse: Circadian Rhythms of Blood Pressure, Heart Rate, and Locomotor Activity in Spontaneously Hypertensive Rats as Measured With Radio-Telemetry. Physiology & Behavior 55(4): 783-787, 1994 B-4. Determination of Pharmacokinetic Parameters Following Intravenous and Oral Administration
The pharmacokinetic parameters of the compounds of the formula (I) according to the invention are determined in male CD-1 mice, male Wistar rats and female beagles. Intravenous administration in the case of mice and rats is effected by means of a species-specific plasma/DMSO formulation, and in the case of dogs by means of a water/PEG400/ethanol formulation. In all species, oral administration of the dissolved substance is performed via gavage, based on a water/PEG400/ethanol formulation. The removal of blood from rats is simplified by inserting a silicone catheter into the right Vena jugularis externa prior to substance administration. The operation is effected at least one day prior to the experiment with isofluran anaesthesia and administration of an analgesic ([…]/rimadyl (3/1) 0.1 ml s.c.). The blood is taken (generally more than 10 time points) within a time window including terminal time points of at least 24 to a maximum of 72 hours after substance administration. The blood is removed into heparinized tubes. The blood plasma is then obtained by centrifugation; if required, it can be stored at −20° C. until further processing.
An internal standard (which may also be a chemically unrelated substance) is added to the samples of the compounds of the formula (I) according to the invention, calibration samples and qualifiers, and this is followed by protein precipitation using excess acetonitrile. Addition of a buffer solution matched to the LC conditions, and subsequent vortexing, is followed by centrifugation at 1000 g. The supernatant is analysed by means of LC-MS/MS using C18 reversed-phase columns and variable mobile phase mixtures. The substances are quantified via the peak heights or areas from extracted ion chromatograms of specific selected ion monitoring experiments.
The plasma concentration/time plots determined are used to calculate the pharmacokinetic parameters such as AUC (area under the curve), Cmax, t1/2 (terminal half life), F (bioavailability), MRT (mean residence time) and CL (clearance), using a validated pharmacokinetic calculation programme.
Since the substance quantification is performed in plasma, it is necessary to determine the blood/plasma distribution of the substance in order to be able to adjust the pharmacokinetic parameters correspondingly. For this purpose, a defined amount of substance is incubated in heparinized whole blood of the species in question in a rocking roller mixer for 20 min. After centrifugation at 1000 g, the plasma concentration is measured (by means of LC-MS/MS; see above) and determined by calculating the ratio of the Cblood/Cplasma value.

C[C@@]1(C(F)(F)F)C(=O)Nc2nc(-c3nn(Cc4ncccc4F)c4ncc(F)cc34)nc(NCCC(F)(F)F)c21 (single isomer, unassigned) [Example 1-1]
MRT (male, Wistar, rat, plasma): 6.6 h
half-life (male, Wistar, rat, plasma): 5.9 h
AUCnorm: 1.77 kg·h/L
CLblood: 11.7 mL/min/kg
F: 98.8%
